In publication PMC7859440, “Transporter Gene Regulation in Sandwich Cultured Human Hepatocytes Through the Activation of Constitutive Androstane Receptor (CAR) or Aryl Hydrocarbon Receptor (AhR)” (Frontiers in Pharmacology, 2021):
Values joined by “and” are separate entries in the source; they are usually repeats but may differ in a detail not shown here. Identical values can stand only once.

Experiments:
SLC51B = test system: SLC51B; parameters: method as in Niu et al., 2019; conditions: rifampin (PXR ligand), human and monkey hepatocytes; ref Niu et al., 2019; cited from earlier work
CYP1A2 = conditions: SCHH, 72 h; TCDD 50 nM, OP 50 µM, CITCO 5 µM, PB 1,000 µM (highest conc.); mean ± SD, three donors
Procedure: (§1) Cryopreserved human hepatocytes were quickly thawed at 37°C and then transferred into hepatocyte thawing medium. Cells were pelleted at 100 × g for 10 min and then resuspended in hepatocyte complete plating medium (CP medium). The cells were then seeded at 65,000 cells per well in 96-well collagen I coated plates. After cell attachment (4–6 h post-seeding), CP medium was exchanged for ice-cold complete incubation medium (HI medium) containing BD Matrigel™ at the concentration of 0.25 mg/ml. The cells were then incubated overnight at 37°C in a humidified 5% CO2 incubator. […] Cell death or loss of adhesion of hepatocytes during or after treatment were examined by microscopy.
A RNeasy 96 Kit (Qiagen) was used to extract the total cellular RNA from sandwich cultured hepatocytes in 96-well plates following the manufacturer's instructions. A total volume of 200 μL RNA was obtained via the column elution provided in the RNeasy kit. […] Gene expression for each condition is expressed as a fold-change of mean ± standard deviation (SD) from three independent donors (each performed in triplicate). […]

CYP2B6 = experiment: in vitro
Procedure: as §1
(§2) A RNeasy 96 Kit (Qiagen) was used to extract the total cellular RNA from sandwich cultured hepatocytes in 96-well plates following the manufacturer's instructions. A total volume of 200 μL RNA was obtained via the column elution provided in the RNeasy kit. Five μL RNA extraction was mixed with TaqMan® Fast Virus 1-Step Master Mix (Life Technologies) in a final reaction volume of 20 μL and qRT-PCR was achieved using a QuantStudio 6 Flex Real-Time PCR System (Life Technologies), following the manufacturer's instructions. β-actin mRNA expression in the SCHH was used as a house-keeping gene for the normalization of target gene expressions. The mRNA levels in SCHH treated with AhR or CAR activators were expressed by a fold change, compared to the gene expressions without the treatment. […] Gene expression for each condition is expressed as a fold-change of mean ± standard deviation (SD) from three independent donors (each performed in triplicate). All primer and probe sets were purchased from Life Technologies (Table 2). When concentration-dependent induction observed, the in vitro induction mRNA data were fitted using the sigmoid 3-parameter equation in GraphPad Prism (La Jolla, CA) to estimate the in vitro concentration of inducer that produced half the maximum induction values (EC50).

CYP3A4 = experiment: in vitro
Procedure: as §1, §2

UGT1A1 = experiment: gene induction in sandwich-cultured human hepatocytes (qRT-PCR)
Procedure: as §1
(§3) A RNeasy 96 Kit (Qiagen) was used to extract the total cellular RNA from sandwich cultured hepatocytes in 96-well plates following the manufacturer's instructions. A total volume of 200 μL RNA was obtained via the column elution provided in the RNeasy kit. Five μL RNA extraction was mixed with TaqMan® Fast Virus 1-Step Master Mix (Life Technologies) in a final reaction volume of 20 μL and qRT-PCR was achieved using a QuantStudio 6 Flex Real-Time PCR System (Life Technologies), following the manufacturer's instructions. β-actin mRNA expression in the SCHH was used as a house-keeping gene for the normalization of target gene expressions. The mRNA levels in SCHH treated with AhR or CAR activators were expressed by a fold change, compared to the gene expressions without the treatment. The 2^−ΔΔCt method ([Livak and Schmittgen, 2001]) was used to analyze the relative changes in gene expression, where the Ct is the cycle number at which the fluorescence in the reaction crosses the preset arbitrary threshold; the ΔCt represents the difference between the Ct target and reference and the ΔΔCt is the difference between the ΔCt of the test and the ΔCt of the preassigned control. Gene expression for each condition is expressed as a fold-change of mean ± standard deviation (SD) from three independent donors (each performed in triplicate). All primer and probe sets were purchased from Life Technologies (Table 2). When concentration-dependent induction observed, the in vitro induction mRNA data were fitted using the sigmoid 3-parameter equation in GraphPad Prism (La Jolla, CA) to estimate the in vitro concentration of inducer that produced half the maximum induction values (EC50).

ABCB1 (MDR1) = experiment: as above; type: cell-based; conditions: SCHH, 72 h; TCDD 50 nM, OP 50 µM, CITCO 5 µM, PB 1,000 µM (highest conc.); mean ± SD, three donors
Procedure: as §1, §3

ABCB11 (BSEP) = experiment: as above; type: cell-based; conditions: SCHH, 72 h; TCDD 50 nM, OP 50 µM, CITCO 5 µM, PB 1,000 µM (highest conc.); mean ± SD, three donors
Procedure: as §1, §3

ABCC2 (MRP2) = experiment: as above; type: cell-based; conditions: SCHH, 72 h; TCDD 50 nM, OP 50 µM, CITCO 5 µM, PB 1,000 µM (highest conc.); mean ± SD, three donors
Procedure: as §1, §3

ABCC3 (MRP3) = experiment: as above; type: cell-based; conditions: SCHH, 72 h; TCDD 50 nM, OP 50 µM, CITCO 5 µM, PB 1,000 µM (highest conc.); mean ± SD, three donors
Procedure: as §1, §3

ABCC4 (MRP4) = experiment: as above; type: cell-based; conditions: SCHH, 72 h; TCDD 50 nM, OP 50 µM, CITCO 5 µM, PB 1,000 µM (highest conc.); mean ± SD, three donors
Procedure: as §1, §3

ABCC5 (MRP5) = experiment: as above; type: cell-based; conditions: SCHH, 72 h; TCDD 50 nM, OP 50 µM, CITCO 5 µM, PB 1,000 µM (highest conc.); mean ± SD, three donors
Procedure: as §1, §3

ABCC6 (MRP6) = experiment: as above; type: cell-based; conditions: SCHH, 72 h; TCDD 50 nM, OP 50 µM, CITCO 5 µM, PB 1,000 µM (highest conc.); mean ± SD, three donors
Procedure: as §1, §3

ABCG2 (BCRP) = experiment: as above; type: cell-based; conditions: SCHH, 72 h; TCDD 50 nM, OP 50 µM, CITCO 5 µM, PB 1,000 µM (highest conc.); mean ± SD, three donors
Procedure: as §1, §3

SLC22A1 (OCT1) = experiment: as above; type: cell-based; conditions: SCHH, 72 h; TCDD 50 nM, OP 50 µM, CITCO 5 µM, PB 1,000 µM (highest conc.); mean ± SD, three donors
Procedure: as §1, §3

SLC47A1 (MATE1) = experiment: as above; type: cell-based; conditions: SCHH, 72 h; TCDD 50 nM, OP 50 µM, CITCO 5 µM, PB 1,000 µM (highest conc.); mean ± SD, three donors
Procedure: as §1, §3

SLCO1B1 (OATP1B1) = experiment: as above; type: cell-based; conditions: SCHH, 72 h; TCDD 50 nM, OP 50 µM, CITCO 5 µM, PB 1,000 µM (highest conc.); mean ± SD, three donors
Procedure: as §1, §3

SLCO1B3 (OATP1B3) = experiment: as above; type: cell-based; conditions: SCHH, 72 h; TCDD 50 nM, OP 50 µM, CITCO 5 µM, PB 1,000 µM (highest conc.); mean ± SD, three donors
Procedure: as §1, §3

SLCO2B1 (OATP2B1) = experiment: as above; type: cell-based; conditions: SCHH, 72 h; TCDD 50 nM, OP 50 µM, CITCO 5 µM, PB 1,000 µM (highest conc.); mean ± SD, three donors
Procedure: as §1, §3

SLCO4C1 (OATP4C1) = experiment: as above; type: cell-based; conditions: SCHH, 72 h; TCDD 50 nM, OP 50 µM, CITCO 5 µM, PB 1,000 µM (highest conc.); mean ± SD, three donors
Procedure: as §1, §3

SLC10A1 (NTCP) = experiment: as above; type: cell-based; conditions: SCHH
SLC15A1 (PEPT1) = experiment: as above; type: cell-based; conditions: SCHH, 72 h; TCDD 50 nM, OP 50 µM, CITCO 5 µM, PB 1,000 µM (highest conc.); mean ± SD, three donors
SLC16A1 (MCT1) = experiment: as above; type: cell-based; conditions: SCHH, 72 h; TCDD 50 nM, OP 50 µM, CITCO 5 µM, PB 1,000 µM (highest conc.); mean ± SD, three donors
SLC22A7 (OAT2) = experiment: as above; type: cell-based; conditions: SCHH, 72 h; TCDD 50 nM, OP 50 µM, CITCO 5 µM, PB 1,000 µM (highest conc.); mean ± SD, three donors
SLC22A9 (OAT7) = experiment: as above; type: cell-based; conditions: SCHH, 72 h; TCDD 50 nM, OP 50 µM, CITCO 5 µM, PB 1,000 µM (highest conc.); mean ± SD, three donors
SLC22A5 (OCTN2) = experiment: as above; type: cell-based; conditions: SCHH, 72 h; TCDD 50 nM, OP 50 µM, CITCO 5 µM, PB 1,000 µM (highest conc.); mean ± SD, three donors
SLC29A1 (ENT1) = experiment: as above; type: cell-based; conditions: SCHH, 72 h; TCDD 50 nM, OP 50 µM, CITCO 5 µM, PB 1,000 µM (highest conc.); mean ± SD, three donors
SLC29A2 (ENT2) = experiment: as above; type: cell-based; conditions: SCHH, 72 h; TCDD 50 nM, OP 50 µM, CITCO 5 µM, PB 1,000 µM (highest conc.); mean ± SD, three donors
SLC51A (OSTα) = experiment: as above; type: cell-based; conditions: SCHH, 72 h; TCDD 50 nM, OP 50 µM, CITCO 5 µM, PB 1,000 µM (highest conc.); mean ± SD, three donors
SLC51B (OSTβ) = experiment: as above; type: cell-based; conditions: SCHH, 72 h; TCDD 50 nM, OP 50 µM, CITCO 5 µM, PB 1,000 µM (highest conc.); mean ± SD, three donors
[1] = test system: 24 hepatic drug transporter genes (mRNA); experiment: gene induction in sandwich-cultured human hepatocytes (qRT-PCR), transporter panel; type: cell-based; conditions: sandwich-cultured human hepatocytes (SCHH), generally, 24 transporter genes, read-out: average fold change (fold induction) of transporter genes
[2] = SCHH, 72 h, TCDD 50 nM, OP 50 µM, CITCO 5 µM, PB 1,000 µM (highest conc.), mean ± SD, three donors
[3] = human, sandwich-cultured human hepatocytes (SCHH)

## CO[C@H]1/C=C/O[C@@]2(C)Oc3c(C)c(O)c4c(O)c(c(/C=N/N5CCN(C)CC5)c(O)c4c3C2=O)NC(=O)/C(C)=C\C=C\[C@H](C)[C@H](O)[C@@H](C)[C@@H](O)[C@@H](C)[C@H](OC(C)=O)[C@@H]1C [rifampin]
SLC51B
  SLC51B induction: greater than 10 fold
